US8057810B2, “Peptide substance revealing an immunogeroprotective effect, pharmaceutical composition on its base and the method of its application” (priority 2006, dated 2011)
Residues, ends and D or L forms follow the SMILES beside them.

How the values were obtained:
[1] = test system: white mongrel male mice; test: Acute toxicity, single intramuscular administration; assay type: in vivo; settings: single i.m. 1-5 mg/kg, dose exceeding the therapeutic one by more than 5000 times
Protocol: Common toxicity of H-Glu-Asp-Pro-OH was studied according to the requirements stated in the “Manual for experimental (pre-clinical) study of new pharmacological substances” (2005): acute toxicity in case of single administration of the substance and sub-acute and chronic toxicity in case of long-term administration of the peptide.
The study of acute toxicity was performed on 60 white mongrel male mice with body weight of 18-21 g. The animals were randomly subdivided into 6 equal groups. The substance was administered to the animals once, intramuscularly, in the doses of 1 mg/kg, 2 mg/kg, 3 mg/kg, 4 mg/kg, 5 mg/kg in 0.25 ml of sterile 0.9% NaCl solution. The control animals received 0.9% NaCl solution in the same volume. The study of subacute toxicity was performed on 50 white mongrel male rats with body weight of 170-210 g. Experimental animals received the substance daily, intramuscularly for 90 days in the doses of 1 μg/kg, 0.1 mg/kg, 1 mg/kg in 0.5 ml of sterile 0.9% NaCl solution. […] Upon completion of the experiment biochemical and coagulologic indices of the blood were also evaluated. […] Traditional methods were used for the evaluation of the following indices of the animals' peripheric blood: the quantity of erythrocytes, hemoglobin, reticulocytes, thrombocytes, leukocytes, leukocyte formula, erythrocyte sedimentation rate (ESR), erythrocyte resistance. […]

[2] = test system: rat thymus cells; test: Premature aging induced by ionizing irradiation: rat thymus morphology and morphometry; assay type: in vivo, Wistar rats
Protocol: The experiments were conducted on 40 male Wistar rats 2 months old, weighing 180-210 g. Premature aging was modeled by gamma irradiation using LUCH-1 machine (source 60Co; dose output 17.166×10^−4 Gy/sec.). The animals were irradiated in the dose of 6 Gy daily for 5 days. All the animals were divided into 6 groups:
2 and 2a—irradiated rats;
3 and 3a—irradiated rats, subjected to subcutaneous injection of peptide H-Glu-Asp-Pro-OH in the dose of 0.5 μg per animal in 0.25 ml of sterile 0.9% NaCl solution in 24 hours after the first performance of irradiation for 10 days.
Animals of the 2 and 2a group received 0.9% NaCl solution in the same volume and following the same scheme. Slaughtering of the animals and extraction of their thymus were conducted using nembutal anaesthesia (50 mg/kg). Thymus in groups 1-3 was extracted on the 14th day after the experiment onset, in the 1a-3a groups—on the 21 day after the experiment onset.
Fragments of the extracted thymus were fixed for 24 hours in Buen sour liquid for optic microscopy. Material dehydration and filling it in with paraffin for optic microscopy were conducted according to conventional techniques. Paraffin sections (7 μm) were placed on a microscope slide covered with a poly-L-lysine film (Sigma). Histological and immunohistochemical examinations were carried out using Jenamed-2 microscope (Zeiss).
Review staining of the preparations was conducted by hematoxylin-eosin. Mast cells were selectively stained using 1% toluidine blue (Fluka) solution in 0.5M HCl with pH 0.5.
For electron microscopy fragments of the extracted thymus were fixed according to Karnovsky's method. […]
The morphometric studies were conducted by means of the system for computer analysis of microscopic images Imstar using Morphostar and Colquant-2 software, in accordance with the basic principles of stereology and morphometry. […] Proliferative activity index (IPCNA) was calculated using the following formula: IPCNA(%)=NPCNA/Nnuclei×100.

[3] = group 3: irradiated rats, 0.5 μg per animal s.c. for 10 days, 14th day

N[C@@H](CCC(=O)O)C(=O)N[C@@H](CC(=O)O)C(=O)N1CCC[C@H]1C(=O)O [Peptide H-Glu-Asp-Pro-OH, glutamyl-aspartyl-proline] (H-Glu-Asp-Pro-OH)
Acute toxicity: toxic reactions [1]: does not cause toxic reactions
Number of mast cells in the thymus [2, 3]: 32±5 per 1 mm^2
Proliferative activity index (IPCNA) in the thymus [2, 3]: 55%
Involution changes of the thymus (microscopic analysis) vs irradiated groups 2 and 2a ([2]; groups 3, 3a: irradiated rats, 0.5 μg per animal s.c., 14th and 21st day): less pronounced involution changes
